Assay results published in article PMC11440508, “Dually Labeled Neurotensin NTS1R Ligands for Probing Radiochemical and Fluorescence-Based Binding Assays” (Journal of Medicinal Chemistry, 2024).

Assay: Radiochemical purity after storage (RP-HPLC)
Format: physicochemical
Conditions: stock solution, degradation by radiolysis
Description: Figure 2 (A) Radiochemical purities (>99%) of [^3H]13 and [^3H]18 directly after synthesis determined by RP-HPLC analysis. (B) Radiochemical purities of [^3H]13 and [^3H]18 determined 11 months after synthesis. The purities amounted to 92% ([^3H]13) and 80% ([^3H]18).
Over a period of 11 months, degradation of both dually labeled ligands by radiolysis was low (Figure 2B).
A solution of succinimidyl [^3H]propionate (molar activity: 3.89 TBq/mmol, purchased from Novandi, Södertälje, Sweden) (55.5 MBq, 0.75 mL, 14.3 nmol) in n-heptane/EtOAc 3:2 v/v was transferred from the delivered ampule into a 1.5 mL polypropylene reaction vessel with screw cap, and the solvent was removed in a vacuum concentrator (30 °C, ca. 30 min). […] To quantify the activity of the two radioligands and to determine the molar concentration, 2 × 2 μL of the preliminary stock solution were added to 998 μL of DMSO/H2O 3:7 v/v, and 4 × 10 μL of these dilutions were counted in 3 mL of liquid scintillator (Rotiscint Eco Plus, Carl Roth, Karlsruhe, Germany) with a Tri-Carb 3100TR liquid scintillation counter (PerkinElmer). […] The molar activity of the labeling reagent succinimidyl [^3H]propionate was determined by liquid chromatography–mass spectrometry (LC-MS) analysis. Coinjection of “cold” succinimidyl propionate allowed the quantification of the incorporated tritium (Novandi, Södertälje, Sweden). […]

## CCC(=O)NCCCCNC(=O)NC(=N)NCCC[C@H](NC(=O)[C@@H]1CCCN1C(=O)[C@@H](NC(=O)CCc1cn(CCCNC(=O)c2ccc(-c3c4ccc(=[N+](C)C)cc-4oc4cc(N(C)C)ccc34)c(C(=O)[O-])c2)nn1)C1CCNCC1)C(=O)N[C@@H](CCCNC(=N)N)C(=O)N1CCC[C@H]1C(=O)N[C@@H](Cc1ccc(O)cc1)C(=O)N[C@H](C(=O)N[C@@H](CC(C)C)C(=O)O)[C@@H](C)CC [[^3H]13]
  Radiochemical purity 11 months after synthesis: 92%
